Laboratory results taken from ChEMBL document CHEMBL1155068, “Balancing oral exposure with Cyp3A4 inhibition in benzimidazole-based IGF-IR inhibitors” (Bioorg Med Chem Lett, 2008).

Assay: Metabolic stability in mouse liver microsomes
Assay type: ADME, Microsome

Stability [nmol/min/mg] | SMILES
< 0.1 | Cc1cc(N2CCC(N3CCN(C(=O)OCCO)CC3)CC2)cc2[nH]c(-c3c(NC[C@@H](O)c4cccc(Cl)c4)cc[nH]c3=O)nc12
0.1 | COCCOC1CCN(c2cc(C)c3nc(-c4c(NC[C@@H](O)c5cccc(Cl)c5)cc[nH]c4=O)[nH]c3c2)CC1
< 0.1 | CC(=O)N1CCN(C2CCN(c3cc(C)c4nc(-c5c(NC[C@@H](O)c6cccc(Cl)c6)cc[nH]c5=O)[nH]c4c3)CC2)CC1
< 0.1 | COC(=O)N1CCN(C2CCN(c3cc(C)c4nc(-c5c(NC[C@@H](O)c6cccc(Cl)c6)cc[nH]c5=O)[nH]c4c3)CC2)CC1
< 0.1 | Cc1cc(N2CCC(N3CCN(C(=O)C4CC4)CC3)CC2)cc2[nH]c(-c3c(NC[C@@H](O)c4cccc(Cl)c4)cc[nH]c3=O)nc12
0.1 | Cc1cc(N2CCC(O)CC2)cc2[nH]c(-c3c(NC[C@@H](O)c4cccc(Cl)c4)cc[nH]c3=O)nc12
0.1 | COC(=O)NC1CCN(c2cc(C)c3nc(-c4c(NC[C@@H](O)c5cccc(Cl)c5)cc[nH]c4=O)[nH]c3c2)CC1
< 0.1 | Cc1cc(N2CCC(N3CCN(C)CC3)CC2)cc2[nH]c(-c3c(NC[C@@H](O)c4cccc(Cl)c4)cc[nH]c3=O)nc12
> 0.2 | COC1CCN(c2cc(C)c3nc(-c4c(NC[C@@H](O)c5cccc(Cl)c5)cc[nH]c4=O)[nH]c3c2)CC1
< 0.1 | COCC(=O)N1CCN(C2CCN(c3cc(C)c4nc(-c5c(NC[C@@H](O)c6cccc(Cl)c6)cc[nH]c5=O)[nH]c4c3)CC2)CC1
< 0.1 | Cc1cc(N2CCC(N3CCN(C(=O)N4CCOCC4)CC3)CC2)cc2[nH]c(-c3c(NC[C@@H](O)c4cccc(Cl)c4)cc[nH]c3=O)nc12
< 0.1 | Cc1cc(N2CCC(N3C[C@@H](C)O[C@@H](C)C3)CC2)cc2[nH]c(-c3c(NC[C@@H](O)c4cccc(Cl)c4)cc[nH]c3=O)nc12
0.1 | Cc1cc(N2CCC(NC(=O)C3CC3)CC2)cc2[nH]c(-c3c(NC[C@@H](O)c4cccc(Cl)c4)cc[nH]c3=O)nc12
< 0.1 | COCCOC(=O)N1CCN(C2CCN(c3cc(C)c4nc(-c5c(NC[C@@H](O)c6cccc(Cl)c6)cc[nH]c5=O)[nH]c4c3)CC2)CC1
0.1 | Cc1cc(N2CCOCC2)cc2[nH]c(-c3c(NC[C@@H](O)c4cccc(Cl)c4)cc[nH]c3=O)nc12
< 0.1 | Cc1cc(N2CCC(N3CCN(C(=O)N4CCN(C)CC4)CC3)CC2)cc2[nH]c(-c3c(NC[C@@H](O)c4cccc(Cl)c4)cc[nH]c3=O)nc12
< 0.1 | COCCOCC(=O)N1CCN(C2CCN(c3cc(C)c4nc(-c5c(NC[C@@H](O)c6cccc(Cl)c6)cc[nH]c5=O)[nH]c4c3)CC2)CC1
> 0.2 | Cc1cc(N2CCC(OCCO)CC2)cc2[nH]c(-c3c(NC[C@@H](O)c4cccc(Cl)c4)cc[nH]c3=O)nc12
0.1 | Cc1cc(N2CCC3(CC2)OCCO3)cc2[nH]c(-c3c(NC[C@@H](O)c4cccc(Cl)c4)cc[nH]c3=O)nc12
0.1 | Cc1cc(N2CCC(N3CCOCC3)CC2)cc2[nH]c(-c3c(NC[C@@H](O)c4cccc(Cl)c4)cc[nH]c3=O)nc12
